Source: patent publication US20060004185A1, “Peptide antibiotics and peptide intermediates for their prepartion” (priority 2004, published 2006)

What was measured:
[1] = cited from earlier work
[2] = system: Escherichia coli, ATCC #26; experiment: MIC, serial twofold broth dilution in Mueller Hinton broth; type: cell-based; settings: Escherichia coli ATCC #26, Mueller Hinton broth
[3] = system: Staphylococcus aureus Smith; experiment: as above; type: cell-based

Substance	renal toxicity ([1]; patients, recommended dosing)	E. coli MIC [2] [micrograms per milliliter]	Staph MIC [3] [µg/mL]	overall incidence of neurotoxicity ([1]; human, in vivo) [%]
Polymyxin B [reference compound]	Some renal toxicity was observed	0.6	> 10	
colistin				7.3
